Experimental data: patent US6740662B1, “Naphthyridine derivatives” (Yamanouchi Pharmaceutical Co., Ltd., priority 1999, dated 2004)

Assays:
[1] = Oral absorbability and pharmacokinetic profile evaluation test using type IV PDE inhibitory activity as the index; assay type: in vivo; conditions: orally administered to male Fisher rat at 3 mg/kg; plasma type IV PDE inhibitory activity as index; in comparison with a comparative compound
Method: Test Example 3. Oral absorbability and pharmacokinetic profile evaluation test using type IV PDE inhibitory activity as the index
The following assay was carried out in order to evaluate oral absorbability and pharmacokinetic profiles of the type IV PDE-inhibiting compounds of the invention.
1) Each test compound suspended in purified water containing 0.5% methyl cellulose was orally administered to a seven-week-old male Fisher rat at a dose of 3 mg/kg. In the control group, a solvent (0.5% methyl cellulose in purified water, 3 ml/kg) was administered in the same manner. After the oral administration, blood samples were periodically collected in the presence of heparin from the caudal vein of each rat under ether anesthesia, and plasma was prepared in the usual way.
2) The plasma prepared from each rat administered with the test compound or solvent was added to the type IV PDE measuring system shown in the above Test Example 1 so as to be a final concentration of 0.1%, and the type IV PDE inhibitory activity was measured.

[2] = system: P450 drug metabolizing enzyme present in the liver microsome; assay: In vitro drug metabolism test using liver microsome; assay type: in vitro ADME; conditions: human and rat liver microsome, test compound 20 ng/ml, 37° C., 10, 20 and 30 minutes, residual ratio
Method: 1) Human and rat liver microsome suspension (human microsome: Xenotech, rat microsome: Charles River) was diluted with 100 mM Na-K phosphate buffer (pH 7.4) to a protein concentration of 0.5 mg/ml. To a 100 μl portion of this suspension were added 2 μl of a test compound solution (a 10 μg/ml acetonitrile solution), 500 μl of 200 mM Na-K phosphate buffer (pH 7.4), 50 μl of 1 mM EDTA-NaOH (pH 7.4) and 200 μl of purified water, thereby preparing a substrate solution (concentration in the reaction solution: liver microsome (as the protein content) 0.05 mg/ml, test compound 20 ng/ml, 100 mM Na-K phosphate buffer, 0.1 mM EDTA-NaOH).
2) An NADPH production system was prepared by mixing 42 mg of NADP, 5 ml of 100 mM […] (G6P) and 5 ml of 100 mM MgCl2, and adding 57 μl of G6P dehydrogenase (about 1750 U/5 mg/ml) to the mixture. This was heated at 37° C. for 5 minutes and then ice-cooled until its use.
3) A 900 μl portion of the substrate solution was pre-incubated at 37° C. for 5 minutes, and then 100 μl of the NADPH production system was added thereto, following by reaction at 37° C. for 10, 20 and 30 minutes. After termination of the reaction by adding 2 ml of ethyl acetate, the whole was ice-cooled. In this connection, a control sample was prepared by adding 100 μl of the NADPH production system after adding 2 ml of ethyl acetate (0 minute reaction).
4) To the reaction solution was added 100 μl of an internal standard substance having a predetermined concentration (an acetonitrile solution), 1 ml of 0.5 M phosphoric acid and 2 ml of ethyl acetate, followed by shaking for 10 minutes. After 10 minutes of centrifugation at 2,500 rpm, the ethyl acetate layer was separated and evaporated to dryness, and the residue was dissolved in 100 μl of an HPLC mobile phase solvent. The test compound was eluted after about 12 minutes, and the internal standard substance after about 16 minutes, under the following conditions. (HPLC measuring conditions mobile phase: acetonitrile/20 mM ammonium acetate=2:3 (v/v), column: Discovery RP Amide C16, 4.6×35 mm (SUPELCO), flow rate: 0.8 ml/min., detection: UV 286 nm)
5) A ratio (residual ratio) of the peak height ratio after 10, 20 or 30 minutes of the reaction to the peak height ratio of each test compound in the control (peak height ratio to the internal standard substance) was calculated.

SMILES	melting point	oral absorbability and metabolic stability [1]	metabolism by the P450 drug metabolizing enzyme present in the liver microsome [2]
CCn1c(=O)c(CCC(=O)O)c(-c2cccc(C)c2)c2ccc(C)nc21 [Example 77, 3-[1-ethyl-7-methyl-4-(3-methylphenyl)-2-oxo-1,2-dihydro-1,8-naphthyridin-3-yl]propanoic acid]	174 to 175 °C	good oral absorbability and metabolic stability	hardly metabolized
CCn1c(=O)c(CCc2nnn[nH]2)c(C2CCCCC2)c2ccc(C)nc21 [Example 79]	207 to 209 °C	good oral absorbability and metabolic stability	hardly metabolized
